Measured values reported in the supplement of paper PMC10307832.

Experiments:
Test in all cases: relative viability (nuclei count vs DMSO), 5 days (fraction); higher = more cells survive
Dinaciclib + Lapatinib = compound: CCc1cnn2c(NCc3ccc[n+]([O-])c3)cc(N3CCCC[C@H]3CCO)nc12 [Dinaciclib] + CS(=O)(=O)CCNCc1ccc(-c2ccc3ncnc(Nc4ccc(OCc5cccc(F)c5)c(Cl)c4)c3c2)o1 [Lapatinib] (partner 2 µM)
Method in brief: (§1)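 Relative viability equals treated-well nuclei counts divided by vehicle-well nuclei counts. Counts came from 4× images of lung cancer cell lines grown in 1536-well plates for 5 days after pin-tool dosing on the day after seeding. Dosing used one drug alone or a fixed anchor-drug dose plus five library-drug doses (not always all listed) in √10 steps, and values are medians of duplicate plates.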

Dinaciclib + Pictilisib = compound: CCc1cnn2c(NCc3ccc[n+]([O-])c3)cc(N3CCCC[C@H]3CCO)nc12 [Dinaciclib] + CS(=O)(=O)N1CCN(Cc2cc3nc(-c4cccc5[nH]ncc45)nc(N4CCOCC4)c3s2)CC1 [Pictilisib] (partner 1 µM)
Method in brief: as §1

Dinaciclib + Alpelisib = compound: CCc1cnn2c(NCc3ccc[n+]([O-])c3)cc(N3CCCC[C@H]3CCO)nc12 [Dinaciclib] + Cc1nc(NC(=O)N2CCC[C@H]2C(N)=O)sc1-c1ccnc(C(C)(C)C(F)(F)F)c1 [Alpelisib] (partner 2 µM)
Method in brief: as §1

Dinaciclib + Dasatinib = compound: CCc1cnn2c(NCc3ccc[n+]([O-])c3)cc(N3CCCC[C@H]3CCO)nc12 [Dinaciclib] + Cc1nc(Nc2ncc(C(=O)Nc3c(C)cccc3Cl)s2)cc(N2CCN(CCO)CC2)n1 [Dasatinib] (partner 0.075 µM)
Method in brief: as §1

Dinaciclib + Phenformin = compound: CCc1cnn2c(NCc3ccc[n+]([O-])c3)cc(N3CCCC[C@H]3CCO)nc12 [Dinaciclib] + N=C(N)NC(=N)NCCc1ccccc1 [Phenformin] (partner 250 µM)
Method in brief: as §1

Row | Cell Line | relative viability (Dinaciclib + Lapatinib; first compound 0.009487 µM) | relative viability (Dinaciclib + Lapatinib; first compound 0.03 µM) | relative viability (Dinaciclib + Lapatinib; first compound 0.09487 µM) | relative viability (Dinaciclib + Lapatinib; first compound 0.3 µM) | relative viability (Dinaciclib + Pictilisib; first compound 0.009487 µM) | relative viability (Dinaciclib + Pictilisib; first compound 0.03 µM) | relative viability (Dinaciclib + Pictilisib; first compound 0.09487 µM) | relative viability (Dinaciclib + Pictilisib; first compound 0.3 µM) | relative viability (Dinaciclib + Alpelisib; first compound 0.009487 µM) | relative viability (Dinaciclib + Alpelisib; first compound 0.03 µM) | relative viability (Dinaciclib + Alpelisib; first compound 0.09487 µM) | relative viability (Dinaciclib + Alpelisib; first compound 0.3 µM) | relative viability (Dinaciclib + Dasatinib; first compound 0.009487 µM) | relative viability (Dinaciclib + Dasatinib; first compound 0.03 µM) | relative viability (Dinaciclib + Dasatinib; first compound 0.09487 µM) | relative viability (Dinaciclib + Dasatinib; first compound 0.3 µM) | relative viability (Dinaciclib + Phenformin; first compound 0.009487 µM) | relative viability (Dinaciclib + Phenformin; first compound 0.03 µM) | relative viability (Dinaciclib + Phenformin; first compound 0.09487 µM) | relative viability (Dinaciclib + Phenformin; first compound 0.3 µM)
1 | NCI-H1651 | 0.685 | 0.142 | 0.0637 | 0.0602 | 0.507 | 0.115 | 0.0517 | 0.0439 | 0.865 | 0.613 | 0.108 | 0.0602 | 0.299 | 0.159 | 0.0523 | 0.0403 | 0.26 | 0.219 | 0.0746 | 0.0547
2 | NCI-H1666 | 0.319 | 0.19 | 0.182 | 0.212 | 0.4 | 0.19 | 0.21 | 0.226 | 0.716 | 0.165 | 0.228 | 0.243 | 0.617 | 0.37 | 0.304 | 0.264 | 0.461 | 0.34 | 0.4 | 0.347
3 | NCI-H1734 | 0.72 | 0.158 | 0.134 | 0.143 | 0.396 | 0.188 | 0.124 | 0.128 | 0.607 | 0.271 | 0.127 | 0.138 | 0.373 | 0.122 | 0.142 | 0.119 | 0.318 | 0.14 | 0.113 | 0.115
4 | NCI-H1755 | 1.05 | 0.829 | 0.163 | 0.184 | 0.387 | 0.132 | 0.127 | 0.143 | 0.852 | 0.241 | 0.158 | 0.169 | 0.427 | 0.194 | 0.225 | 0.191 | 0.545 | 0.405 | 0.224 | 0.218
5 | NCI-H1792 | 0.848 | 0.808 | 0.0608 | 0.0733 | 0.234 | 0.121 | 0.0539 | 0.0574 | 0.732 | 0.289 | 0.118 | 0.0656 | 0.823 | 0.631 | 0.439 | 0.183 | 0.237 | 0.184 | 0.0541 | 0.075
6 | NCI-H1793 | 0.389 | 0.112 | 0.18 | 0.147 | 0.288 | 0.177 | 0.145 | 0.2 | 0.468 | 0.188 | 0.163 | 0.15 | 0.372 | 0.2 | 0.0986 | 0.13 | 0.374 | 0.235 | 0.115 | 0.119
7 | NCI-H1915 | 0.715 | 0.134 | 0.102 | 0.111 | 0.658 | 0.158 | 0.121 | 0.102 | 0.866 | 0.202 | 0.108 | 0.108 | 0.301 | 0.149 | 0.121 | 0.123 | 0.295 | 0.149 | 0.13 | 0.133
8 | NCI-H1944 | 0.936 | 0.169 | 0.143 | 0.147 | 0.4 | 0.172 | 0.168 | 0.177 | 0.904 | 0.221 | 0.152 | 0.166 | 0.267 | 0.117 | 0.117 | 0.13 | 0.184 | 0.117 | 0.121 | 0.13
9 | NCI-H1975 | 0.561 | 0.129 | 0.107 | 0.133 | 0.166 | 0.0983 | 0.102 | 0.102 | 0.473 | 0.118 | 0.112 | 0.147 | 0.483 | 0.263 | 0.0967 | 0.0711 | 0.364 | 0.153 | 0.113 | 0.1
10 | NCI-H1993 | 0.869 | 0.45 | – | 0.723 | 0.694 | 0.834 | – | 0.588 | 0.671 | 0.683 | – | 0.642 | 0.637 | 0.509 | 0.481 | 0.576 | 0.466 | 0.581 | 0.594 | 0.565
11 | NCI-H2009 | 0.493 | 0.108 | 0.101 | 0.0913 | 0.661 | 0.0836 | 0.0705 | 0.0666 | 0.923 | 0.151 | 0.102 | 0.0919 | 0.199 | 0.0887 | 0.072 | 0.0636 | 0.463 | 0.159 | 0.11 | 0.105
12 | NCI-H2023 | 0.817 | 0.0669 | 0.0655 | 0.0585 | 0.26 | 0.0718 | 0.0607 | 0.0559 | 0.538 | 0.25 | 0.064 | 0.0614 | 0.393 | 0.0627 | 0.0546 | 0.0553 | 0.384 | 0.0797 | 0.0696 | 0.0629
13 | NCI-H2085 | 0.712 | 0.238 | 0.249 | 0.26 | 0.424 | 0.281 | 0.221 | 0.215 | 0.976 | 0.346 | 0.228 | 0.258 | 0.223 | 0.184 | 0.218 | 0.229 | 0.72 | 0.304 | 0.232 | 0.202
